“Also recorded” adds a separate entry of the source.
Tests used:
[1] = test system: histone acetylation on the HIV LTR; experiment: Histone Acetyl H3 ChIP at the HIV LTR in J-Lat cells; type: cell-based; conditions: latent J-Lat cells; FIG. 4D
Procedure: (§1) (A) Schematic representation of strategy to explore nucleosome position changes and enrichment of LEF/b-catenin at the HIV LTR in its repressed state and after Wnt activation. Jurkat latent cells at 0, and 12 hours after stimulation with LiCl, BIO VPA, or LiCl and VPA together were crosslinked and sonicated to yield DNA fragments of approximately 150 bp. DNA accessibility was monitored by formaldehyde-assisted isolation of regulatory elements (FAIRE) while nucleosome occupancy was determined by histone H2B Chromatin immunoprecipitations (ChIPs). To determine enrichment of LEF, b-catenin, or Histone Acetyl H3, we performed ChIPs with antibodies specific for LEF1, b-catenin, Ac H3. (B) Wnt activation by treatment with LiCl/BIO is accompanied by an increase in DNA accessibility over the DHS1 of the HIV LTR. […] FAIRE results are presented as fold change respective to the unstimulated value (normalized to 1) for each primer pair. (D) b-catenin while absent from the LTR in the repressed state, directly binds to the LTR upon LiCl/BIO activation. LEF1 binding, while present on the LTR in the repressed state is enriched upon LiCl/BIO treatment. […] Immunoprecipitated DNA from ChIPs and phenol:chloroform extracted DNA from FAIRE were analyzed by qPCR using primer pairs specific for the HIV LTR nuc-0, DHS1, nuc-1, and nuc-2 regions, and control region amplifying upstream of the Axin2 gene. […]

LEF1 binding at HIV LTR = experiment: LEF1 ChIP at the HIV LTR in J-Lat cells; type: cell-based; conditions: latent J-Lat cells; FIG. 4D
Procedure: as §1

[2] = test system: b-catenin recruitment to HIV LTR; experiment: b-catenin ChIP at the HIV LTR in J-Lat cells; type: cell-based; conditions: latent J-Lat cells; FIG. 4D
Procedure: as §1

HIV LTR DHS1 and nuc-1 [3] = experiment: Histone H2B ChIP nucleosome occupancy at the HIV LTR; type: cell-based; conditions: latent J-Lat cells, 12 hours after stimulation; FIG. 4C
Procedure: as §1

HIV LTR DHS1 and nuc-1 [4] = experiment: FAIRE DNA accessibility at the HIV LTR; type: cell-based; conditions: latent J-Lat cells, 12 hours after stimulation; FIG. 4B
Procedure: as §1

latent HIV LTR = experiment: Activation of latent HIV LTR in J-Lat/S-Lat latently infected cell lines (GFP reporter, FACS); type: cell-based, HIV-1; conditions: single agents; J-Lat/S-Lat or 1G5 cells; FIG. 5
Procedure: A) S-Lat 46, J-Lat P32, J-Lat A2, J-Lat 11.1, S-Lat 24, S-Lat 9 and […], and GFP expression was monitored by FACS analysis to determine activation of the latent LTR. B) J-Lat P32 and (C) S-Lat 30 Jurkats and SupT1 cell lines harbouring latently infected HIV were either untreated or treated with 2, 5 or 10 mM LiCl as indicated. Expression of HIV-LTR driven P24 and GFP, and endogenous Wnt target genes AXIN2, MMP9, TCF1, as well as control GAPDH and NFkB target genes TLR2 and ICAM1 was monitored by qRT-PCR 72 hours after treatment. Expression data are presented as fold induction normalized to Cyclophillin A control.
Expression data are presented as fold induction normalized to Cyclophillin A control.

O=C1Nc2cc(Br)ccc2/C1=C1/Nc2ccccc2/C1=N\O [BIO, (2′Z,3′E)-6-Bromoindirubin-3′-oxime]
histone acetylation on the LTR (Ac H3 ChIP) [1]: histone acetylation is increased on the LTR | enrichment of LEF1 at the HIV LTR (ChIP) (LEF1 binding at HIV LTR): enrichment of LEF1 at the HIV LTR | recruitment of b-catenin to the HIV LTR (ChIP) [2]: recruitment of b-catenin to LTR DHS1 and nuc-1 | nucleosome occupancy / histone density at the HIV LTR (H2B ChIP) (HIV LTR DHS1 and nuc-1 [3]): decreased nucleosome occupancy at DHS1 | DNA accessibility at the HIV LTR (FAIRE) (HIV LTR DHS1 and nuc-1 [4]): increase accessibility | de-repression / activation of latent HIV LTR (latent HIV LTR): de-repression of latent HIV LTR; also recorded: activates the LTR in latently HIV infected cells

Reference: patent US20150099012A1, “METHODS FOR ACTIVATING RETROVIRUS IN LATENT INFECTED CELLS, AND COMPOUNDS FOR USE THEREIN” (Erasmus University Medical Center Rotterdam, priority 2012, published 2015)
